Measured values: US20090253709A1 (NATIONAL DEFENSE MEDICAL CENTER, priority 2008, published 2009)

How the values were obtained:
Test in all cases: In vitro cytotoxicity, Development Therapeutics Program
Assay type in all cases: cell-based
PC-3 = details: PC-3, prostate cancer; 1.0×10^−5 M
In short: (§1)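 US DTP in vitro cytotoxicity testing; fixed 1.0×10^−5 M dose per cell line; inhibition reported.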

UACC-62 = details: UACC-62, melanoma; 1.0×10^−5 M
In short: as §1

SF-268 = details: SF-268, CNS cancer; 1.0×10^−5 M
In short: as §1

BT-549 = details: BT-549, breast cancer; 1.0×10^−5 M
In short: as §1

SK-MEL-5 = details: SK-MEL-5, melanoma; 1.0×10^−5 M
In short: as §1

CCRF-CEM = details: leukemia, 1.0×10^−5 M
In short: as §1

HOP-92 = details: HOP-92, non-small cell lung cancer; 1.0×10^−5 M
In short: as §1

MCF7 = details: MCF7, breast cancer; 1.0×10^−5 M
In short: as §1

NCI-H23 = details: NCI-H23, non-small cell lung cancer; 1.0×10^−5 M
In short: as §1

MDA-MB-435 = details: MDA-MB-435, breast cancer; 1.0×10^−5 M
In short: as §1

CAK1-1 = details: CAK1-1, renal cancer; 1.0×10^−5 M
In short: as §1

NCl-H522 = details: NCl-H522, non-small cell lung cancer; 1.0×10^−5 M
In short: as §1

UO-31 = details: UO-31, renal cancer; 1.0×10^−5 M
In short: as §1

SR = details: leukemia, 1.0×10^−5 M
In short: as §1

NCl-H226 = details: NCl-H226, non-small cell lung cancer; 1.0×10^−5 M
In short: as §1

HCT-15 = details: HCT-15, colon cancer; 1.0×10^−5 M
In short: as §1

LOX IMVI = details: melanoma, 1.0×10^−5 M
In short: as §1

HS 578T = details: breast cancer, 1.0×10^−5 M
In short: as §1

SN12C = details: renal cancer, 1.0×10^−5 M
In short: as §1

OVCAR-5 = details: OVCAR-5, ovarian cancer; 1.0×10^−5 M
In short: as §1

EKVX = details: non-small cell lung cancer, 1.0×10^−5 M
In short: as §1

SK-MEL-2 = details: SK-MEL-2, melanoma; 1.0×10^−5 M
In short: as §1

786-0 = details: 786-0, renal cancer; 1.0×10^−5 M
In short: as §1

K-562 = details: K-562, leukemia; 1.0×10^−5 M
In short: as §1

HOP-62 = details: HOP-62, non-small cell lung cancer; 1.0×10^−5 M
In short: as §1

M14 = details: M14, melanoma; 1.0×10^−5 M
In short: as §1

DU-145 = details: DU-145, prostate cancer; 1.0×10^−5 M
In short: as §1

NCI/ADR-RES = details: breast cancer, 1.0×10^−5 M
In short: as §1

A498 = details: A498, renal cancer; 1.0×10^−5 M
In short: as §1

OVCAR-8 = details: OVCAR-8, ovarian cancer; 1.0×10^−5 M
In short: as §1

MDA-MB-231/ATCC = details: breast cancer, 1.0×10^−5 M
In short: as §1

HT29 = details: HT29, colon cancer; 1.0×10^−5 M
In short: as §1

HCT-116 = details: HCT-116, colon cancer; 1.0×10^−5 M
In short: as §1

MALME-3M = details: melanoma, 1.0×10^−5 M
In short: as §1

MOLT-4 = details: MOLT-4, leukemia; 1.0×10^−5 M
In short: as §1

ACHN = details: renal cancer, 1.0×10^−5 M
In short: as §1

COLO 205 = details: COLO 205, colon cancer; 1.0×10^−5 M
In short: as §1

SK-OV-3 = details: SK-OV-3, ovarian cancer; 1.0×10^−5 M
In short: as §1

Compound | Cellular growth rate (%) (PC-3) | Cellular growth rate (%) (UACC-62) | Cellular growth rate (%) (SF-268) | Cellular growth rate (%) (BT-549) | Cellular growth rate (%) (SK-MEL-5) | Cellular growth rate (%) (CCRF-CEM) | Cellular growth rate (%) (HOP-92) | Cellular growth rate (%) (MCF7) | Cellular growth rate (%) (NCI-H23) | Cellular growth rate (%) (MDA-MB-435) | Cellular growth rate (%) (CAK1-1) | Cellular growth rate (%) (NCl-H522) | Cellular growth rate (%) (UO-31) | Cellular growth rate (%) (SR) | Cellular growth rate (%) (NCl-H226) | Cellular growth rate (%) (HCT-15) | Cellular growth rate (%) (LOX IMVI) | Cellular growth rate (%) (HS 578T) | Cellular growth rate (%) (SN12C) | Cellular growth rate (%) (OVCAR-5) | other results
O=C(CCN1CCCC1)Nc1ccc2c(c1)C(=O)c1cc(NC(=O)CCN3CCCC3)ccc1C2=O [Compound 18, 2,7-Bis[3-(pyrrolidino)propionamido]anthraquinone] | 21.66 | 42.72 | 26.67 | 76.91 | 56.94 | 3.74 | 7.04 | 13.35 | 31.49 | 68.84 | 55.55 | 29.16 | 5.27 | 19.75 | 41.10 | 56.14 | 30.74 | 5.26 | 6.68 | 18.81 | Cellular growth rate (%) (EKVX): 58.72%; Cellular growth rate (%) (SK-MEL-2): −45.21%; Cellular growth rate (%) (786-0): 40.51%; Cellular growth rate (%) (K-562): 6.40%; Cellular growth rate (%) (HOP-62): 18.79%; Cellular growth rate (%) (M14): 53.88%; Cellular growth rate (%) (DU-145): 29.53%; Cellular growth rate (%) (NCI/ADR-RES): 80.59%; Cellular growth rate (%) (A498): −0.91%; Cellular growth rate (%) (OVCAR-8): 19.58%; Cellular growth rate (%) (MDA-MB-231/ATCC): 30.47%; Cellular growth rate (%) (HT29): 19.47%; Cellular growth rate (%) (HCT-116): 10.51%; Cellular growth rate (%) (MALME-3M): 47.00%; Cellular growth rate (%) (MOLT-4): 22.97%; Cellular growth rate (%) (ACHN): 29.65%; Cellular growth rate (%) (COLO 205): −29.04%; Cellular growth rate (%) (SK-OV-3): 27.14%
CC(=O)Nc1ccc2c(c1)C(=O)c1cc(NC(C)=O)ccc1C2=O [Compound 26, 2,7-Bis(acetamido)anthraquinone] | 102.73 | 101.24 | 113.68 | 93.29 | 108.87 | 99.77 | 101.26 | 96.90 | 94.24 | 109.48 | 105.10 | 93.56 | 96.42 | 3.61 | 104.51 | 93.93 | 99.05 | 133.05 | 113.35 | 102.27 | Cellular growth rate (%) (EKVX): 95.28%; Cellular growth rate (%) (SK-MEL-2): 30.15%; Cellular growth rate (%) (786-0): 97.72%; Cellular growth rate (%) (K-562): 98.54%; Cellular growth rate (%) (HOP-62): 110.60%; Cellular growth rate (%) (M14): 105.11%; Cellular growth rate (%) (DU-145): 116.79%; Cellular growth rate (%) (NCI/ADR-RES): 114.26%; Cellular growth rate (%) (A498): 115.60%; Cellular growth rate (%) (OVCAR-8): 99.85%; Cellular growth rate (%) (MDA-MB-231/ATCC): 103.99%; Cellular growth rate (%) (HT29): 107.23%; Cellular growth rate (%) (HCT-116): 101.91%; Cellular growth rate (%) (MALME-3M): 111.26%; Cellular growth rate (%) (MOLT-4): 96.96%; Cellular growth rate (%) (ACHN): 96.93%; Cellular growth rate (%) (COLO 205): 119.85%; Cellular growth rate (%) (SK-OV-3): 101.12%
O=C1c2ccc(NC(=O)C3CC3)cc2C(=O)c2cc(NC(=O)C3CC3)ccc21 [Compound 32, 2,7-Bis(cyclopropanecarbonamido)anthraquinone] | 106.89 | 81.00 | 95.09 | 92.51 | 75.67 | 90.67 | 86.18 | 77.38 | 95.85 | 97.35 | 88.43 | 89.41 | 95.55 | 1.69 | 100.60 | 86.35 | 90.27 | 118.90 | 82.93 | 112.01 | Cellular growth rate (%) (EKVX): 94.31%; Cellular growth rate (%) (SK-MEL-2): 16.85%; Cellular growth rate (%) (786-0): 94.92%; Cellular growth rate (%) (K-562): 91.60%; Cellular growth rate (%) (HOP-62): 91.64%; Cellular growth rate (%) (M14): 98.89%; Cellular growth rate (%) (DU-145): 98.83%; Cellular growth rate (%) (NCI/ADR-RES): 90.83%; Cellular growth rate (%) (A498): 92.35%; Cellular growth rate (%) (OVCAR-8): 94.34%; Cellular growth rate (%) (MDA-MB-231/ATCC): 97.05%; Cellular growth rate (%) (HT29): 106.26%; Cellular growth rate (%) (HCT-116): 87.14%; Cellular growth rate (%) (MALME-3M): 91.76%; Cellular growth rate (%) (MOLT-4): 94.29%; Cellular growth rate (%) (ACHN): 86.70%; Cellular growth rate (%) (COLO 205): 91.92%; Cellular growth rate (%) (SK-OV-3): 93.16%
